In patent US12209102B2, “Heterocyclic compounds and uses thereof” (Kumquat Biosciences Inc., priority 2022, dated 2025):
pIC50: −log10 of the molar value.

Experiments:
K-Ras G12D = target: T1, K-Ras G12D (Homo sapiens, UniProt P01116, G12D); assay: HTRF resonance energy transfer assay, K-Ras G12D / SOS1 interaction; assay type: biochemical; details: HTRF assay of Example 5; read-out: IC50 against K-Ras G12D
T1 construct: made in house; host or cells: E. coli BL21 (DE3)
Summary of the method: (§1)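 Read-out: HTRF 665/620 nm ratio (excitation 337 nm) after roughly 10 min or longer incubation, used to derive IC50. Donor anti-GST-Eu on GST-K-Ras; acceptor anti-6His-XL665 on His-hSOS1. Duplicate dose series from 10 μM down to 0.01 μM.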

K-Ras G12S = target: T2, K-Ras G12S (Homo sapiens, UniProt P01116, G12S); assay: HTRF resonance energy transfer assay, K-Ras G12S / SOS1 interaction; assay type: biochemical; details: HTRF assay of Example 5; read-out: IC50 against K-Ras G12S
T2 construct: made in house; host or cells: E. coli BL21 (DE3)
Summary of the method: as §1

K-Ras G12V = target: T3, K-Ras G12V (Homo sapiens, UniProt P01116, G12V); assay: HTRF resonance energy transfer assay, K-Ras G12V / SOS1 interaction; assay type: biochemical; details: HTRF assay of Example 5; read-out: IC50 against K-Ras G12V
T3 construct: made in house; host or cells: E. coli BL21 (DE3)
Summary of the method: as §1

K-Ras WT = target: T4, K-Ras WT (Homo sapiens, UniProt P01116); assay: HTRF resonance energy transfer assay, K-Ras WT / SOS1 interaction; assay type: biochemical; details: HTRF assay of Example 5; read-out: IC50 against K-Ras WT
T4 construct: made in house; host or cells: E. coli BL21 (DE3)
Summary of the method: as §1

GP2D cells = assay: Ras cellular assay, growth of cells with K-Ras G12D mutation (CellTiter-Glo); assay type: cell-based; details: cell growth, Example 9, G12D mutation, read-out: IC50 against GP2D cells
A549 cells = assay: Ras cellular assay, growth of cells with K-Ras G12S mutation (CellTiter-Glo); assay type: cell-based; details: Homo sapiens, cell growth, Example 9, G12S mutation, read-out: IC50 against A549 cells
Summary of the method: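 A549 cells (K-Ras G12S) in RPMI-1640 with 10% heat-inactivated FBS, seeded e.g. 800 per well in standard or ultra-low-attachment 384-well plates, treated next day with a dilution series (e.g. 10-point, 3-fold). Viability by CellTiter-Glo luminescence about 6 days later; IC50 from four-parameter fit.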

SW620 cells = assay: Ras cellular assay, growth of cells with K-Ras G12V mutation (CellTiter-Glo); assay type: cell-based; details: Homo sapiens, SW-620; cell growth, Example 9, G12V mutation; read-out: IC50 against SW620 cells
Summary of the method: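 SW620 (K-Ras G12V) cells, e.g. 800/well in RPMI-1640 with 10% heat-inactivated FBS on standard or ultra-low attachment plates, were dosed the day after plating with e.g. a 10-point 3-fold series. Viability by CellTiter-Glo luminescence about 6 days later; IC50 from four-parameter fit.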

T1 sequence (P01116 1-188 isoform P01116-2 G12D): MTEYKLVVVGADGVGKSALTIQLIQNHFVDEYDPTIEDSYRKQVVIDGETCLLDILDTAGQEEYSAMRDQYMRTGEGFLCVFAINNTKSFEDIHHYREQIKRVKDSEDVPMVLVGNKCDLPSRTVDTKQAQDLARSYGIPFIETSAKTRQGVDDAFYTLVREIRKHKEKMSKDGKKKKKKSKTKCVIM
T3 sequence (P01116 1-188 isoform P01116-2 G12V): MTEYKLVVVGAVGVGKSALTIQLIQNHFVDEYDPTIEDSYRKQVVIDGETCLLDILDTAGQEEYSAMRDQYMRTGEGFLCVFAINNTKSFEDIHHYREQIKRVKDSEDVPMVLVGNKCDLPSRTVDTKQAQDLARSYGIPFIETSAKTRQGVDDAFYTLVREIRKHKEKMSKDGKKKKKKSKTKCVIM
T4 sequence (P01116 1-188 isoform P01116-2): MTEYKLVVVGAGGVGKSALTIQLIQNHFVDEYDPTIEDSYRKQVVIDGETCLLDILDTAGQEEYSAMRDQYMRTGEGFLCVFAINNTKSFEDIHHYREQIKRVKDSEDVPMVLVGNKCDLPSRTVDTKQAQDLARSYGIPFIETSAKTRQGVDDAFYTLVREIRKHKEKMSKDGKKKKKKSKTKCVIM
T2 sequence (P01116 1-188 isoform P01116-2 G12S): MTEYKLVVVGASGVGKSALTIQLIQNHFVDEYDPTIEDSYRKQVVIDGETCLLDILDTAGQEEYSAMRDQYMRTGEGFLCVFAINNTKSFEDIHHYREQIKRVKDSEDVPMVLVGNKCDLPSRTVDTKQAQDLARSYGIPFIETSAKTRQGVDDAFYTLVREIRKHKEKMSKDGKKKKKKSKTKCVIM

SMILES | pIC50 (K-Ras G12D) | pIC50 (K-Ras G12S) | pIC50 (K-Ras G12V) | pIC50 (K-Ras WT) | pIC50 (A549 cells) | pIC50 (SW620 cells) | pIC50 (GP2D cells)
N#Cc1c(N)sc2c(F)ccc(-c3c(Cl)c4c5c(nc(OC[C@@]67CCCN6C[C@H](F)C7)nc5c3F)N(CCC(F)F)CCO4)c12 [Compound 807, 2-amino-4-(8-chloro-4-(3,3-difluoropropyl)-10-fluoro-2-(((2R,7aS)-2-fluorotetrahydro-1H-pyrrolizin-7a(5H)-yl)methoxy)-5,6-dihydro-4H-[1,4]oxazepino[5,6,7-de]quinazolin-9-yl)-7-fluorobenzo[b]thiophene-3-carbonitrile] | > 7.00 | > 7.00 | > 7.00 | > 7.00 | > 5.30 | > 5.30 | > 6.30
N#Cc1c(N)sc2c(F)ccc(-c3c(Cl)c4c5c(nc(OC[C@@]67CCCN6C[C@H](F)C7)nc5c3F)N(C3CCN(C(=O)COC5CC5)C3)CCO4)c12 (stereo partly drawn) [Compound 812, 2-amino-4-(8-chloro-4-(1-(2-cyclopropoxyacetyl)pyrrolidin-3-yl)-10-fluoro-2-(((2R,7aS)-2-fluorotetrahydro-1H-pyrrolizin-7a(5H)-yl)methoxy)-5,6-dihydro-4H-[1,4]oxazepino[5,6,7-de]quinazolin-9-yl)-7-fluorobenzo[b]thiophene-3-carbonitrile] | > 7.00 | > 7.00 | > 7.00 | > 7.00 | > 5.30 | > 5.30 | > 6.30
C[C@H](O)[C@H]1COc2c(Cl)c(-c3ccc(F)c4sc(N)c(C#N)c34)c(F)c3nc(OC[C@@]45CCCN4C[C@H](F)C5)nc(c23)N1CC(F)F [Compound 817, 2-amino-4-((5R)-8-chloro-4-(2,2-difluoroethyl)-10-fluoro-2-(((2R,7aS)-2-fluorotetrahydro-1H-pyrrolizin-7a(5H)-yl)methoxy)-5-((S)-1-hydroxyethyl)-5,6-dihydro-4H-[1,4]oxazepino[5,6,7-de]quinazolin-9-yl)-7-fluorobenzo[b]thiophene-3-carbonitrile] | > 7.00 | > 7.00 | > 7.00 | > 7.00 | > 5.30 | > 5.30 | > 6.30
N#Cc1c(N)sc2c(F)ccc(-c3c(Cl)c4c5c(nc(OC[C@@]67CCCN6C[C@H](F)C7)nc5c3F)N(C3CCCOC3)CCO4)c12 (stereo partly drawn) [Compound 819, 2-amino-4-(8-chloro-10-fluoro-2-(((2R,7aS)-2-fluorotetrahydro-1H-pyrrolizin-7a(5H)-yl)methoxy)-4-(tetrahydro-2H-pyran-3-yl)-5,6-dihydro-4H-[1,4]oxazepino[5,6,7-de]quinazolin-9-yl)-7-fluorobenzo[b]thiophene-3-carbonitrile] | > 7.00 | > 7.00 | > 7.00 | > 7.00 | > 5.30 | > 5.30 | > 6.30
COC1CN(C(=O)N2CCC(N3CCOc4c(Cl)c(-c5ccc(F)c6sc(N)c(C#N)c56)c(F)c5nc(OC[C@@]67CCCN6C[C@H](F)C7)nc3c45)C2)C1 (stereo partly drawn) [Compound 834, 2-amino-4-(8-chloro-10-fluoro-2-(((2R,7aS)-2-fluorotetrahydro-1H-pyrrolizin-7a(5H)-yl)methoxy)-4-(1-(3-methoxyazetidine-1-carbonyl)pyrrolidin-3-yl)-5,6-dihydro-4H-[1,4]oxazepino[5,6,7-de]quinazolin-9-yl)-7-fluorobenzo[b]thiophene-3-carbonitrile] | > 7.00 | > 7.00 | > 7.00 | > 7.00 | > 5.30 | > 5.30 | > 6.30
C[C@H]1COc2c(Cl)c(-c3ccc(F)c4sc(N)c(C#N)c34)c(F)c3nc(OC[C@@]45CCCN4C[C@H](F)C5)nc(c23)N1CCC(F)F [Compound 835, 2-amino-4-((5S)-8-chloro-4-(3,3-difluoropropyl)-10-fluoro-2-(((2R,7aS)-2-fluorotetrahydro-1H-pyrrolizin-7a(5H)-yl)methoxy)-5-methyl-5,6-dihydro-4H-[1,4]oxazepino[5,6,7-de]quinazolin-9-yl)-7-fluorobenzo[b]thiophene-3-carbonitrile] | > 7.00 | > 7.00 | > 7.00 | > 7.00 | > 5.30 | > 5.30 | > 6.30
N#Cc1c(N)sc2c(F)ccc(-c3c(Cl)c4c5c(nc(OC[C@@]67CCCN6C[C@H](F)C7)nc5c3F)N(CC3CC3(F)F)CCO4)c12 (stereo partly drawn) [Compound 850, 2-amino-4-(8-chloro-4-((2,2-difluorocyclopropyl)methyl)-10-fluoro-2-(((2R,7aS)-2-fluorotetrahydro-1H-pyrrolizin-7a(5H)-yl)methoxy)-5,6-dihydro-4H-[1,4]oxazepino[5,6,7-de]quinazolin-9-yl)-7-fluorobenzo[b]thiophene-3-carbonitrile] | > 7.00 | > 7.00 | > 7.00 | > 7.00 | > 5.30 | > 5.30 | > 6.30

More lines, main results first:

pIC50 (K-Ras G12D) | pIC50 (K-Ras G12S) | pIC50 (K-Ras G12V) | pIC50 (K-Ras WT) | pIC50 (A549 cells) | pIC50 (SW620 cells) | SMILES | pIC50 (GP2D cells)
> 7.00 | > 7.00 | > 7.00 | > 7.00 | > 5.30 | > 5.30 | N#Cc1c(N)sc2c(F)ccc(-c3c(Cl)c4c5c(nc(OC[C@@]67CCCN6C[C@H](F)C7)nc5c3F)N(C3CCCC(O)C3)CCO4)c12 (stereo partly drawn) [Compound 854, 2-amino-4-(8-chloro-10-fluoro-2-(((2R,7aS)-2-fluorotetrahydro-1H-pyrrolizin-7a(5H)-yl)methoxy)-4-(3-hydroxycyclohexyl)-5,6-dihydro-4H-[1,4]oxazepino[5,6,7-de]quinazolin-9-yl)-7-fluorobenzo[b]thiophene-3-carbonitrile] | > 6.30
> 7.00 | > 7.00 | > 7.00 | > 7.00 | > 5.30 | > 5.30 | N#Cc1c(N)sc2c(F)ccc(-c3c(Cl)c4c5c(nc(OC[C@@]67CCCN6C[C@H](F)C7)nc5c3F)N(C3CCN(C(=O)C5CC(C(F)F)C5)C3)CCO4)c12 (stereo partly drawn) [Compound 864, 2-amino-4-(8-chloro-4-(1-(3-(difluoromethyl)cyclobutane-1-carbonyl)pyrrolidin-3-yl)-10-fluoro-2-(((2R,7aS)-2-fluorotetrahydro-1H-pyrrolizin-7a(5H)-yl)methoxy)-5,6-dihydro-4H-[1,4]oxazepino[5,6,7-de]quinazolin-9-yl)-7-fluorobenzo[b]thiophene-3-carbonitrile] | > 6.30
> 7.00 | > 7.00 | > 7.00 | > 7.00 | > 5.30 | > 5.30 | N#Cc1c(N)sc2c(F)ccc(-c3c(Cl)c4c5c(nc(OC[C@@]67CCCN6C[C@H](F)C7)nc5c3F)N(CC3(O)CC3)CCO4)c12 [Compound 868, 2-amino-4-(8-chloro-10-fluoro-2-(((2R,7aS)-2-fluorotetrahydro-1H-pyrrolizin-7a(5H)-yl)methoxy)-4-((1-hydroxycyclopropyl)methyl)-5,6-dihydro-4H-[1,4]oxazepino[5,6,7-de]quinazolin-9-yl)-7-fluorobenzo[b]thiophene-3-carbonitrile] | > 6.30
> 7.00 | > 7.00 | > 7.00 | > 7.00 | > 5.30 | > 5.30 | N#Cc1c(N)sc2c(F)ccc(-c3c(Cl)c4c5c(nc(OC[C@@]67CCCN6C[C@H](F)C7)nc5c3F)N(C3CCN(C(=O)CC5CCOCC5)C3)CCO4)c12 (stereo partly drawn) [Compound 869, 2-amino-4-(8-chloro-10-fluoro-2-(((2R,7aS)-2-fluorotetrahydro-1H-pyrrolizin-7a(5H)-yl)methoxy)-4-(1-(2-(tetrahydro-2H-pyran-4-yl)acetyl)pyrrolidin-3-yl)-5,6-dihydro-4H-[1,4]oxazepino[5,6,7-de]quinazolin-9-yl)-7-fluorobenzo[b]thiophene-3-carbonitrile] | > 6.30
> 7.00 | > 7.00 | > 7.00 | > 7.00 | > 5.30 | > 5.30 | N#Cc1c(N)sc2c(F)ccc(-c3c(Cl)c4c5c(nc(OC[C@@]67CCCN6C[C@H](F)C7)nc5c3F)N(C3COCC3O)CCO4)c12 (stereo partly drawn) [Compound 874, 2-amino-4-(8-chloro-10-fluoro-2-(((2R,7aS)-2-fluorotetrahydro-1H-pyrrolizin-7a(5H)-yl)methoxy)-4-(4-hydroxytetrahydrofuran-3-yl)-5,6-dihydro-4H-[1,4]oxazepino[5,6,7-de]quinazolin-9-yl)-7-fluorobenzo[b]thiophene-3-carbonitrile] | > 6.30
